# Source: US11440906B2, “Biguanide derivatives and their rearrangement products for use in the treatment of cancer” (CENTRE NATIONAL DE LA RECHERCHE SCIENTIFIQUE, priority 2017, dated 2022)
# Experiments:
# [1] = system: A375 resistant melanoma cells; assay: Viability test of CRO15 on resistant melanoma cells; format: cell-based, human; settings: 48 hr, FIG. 4A
# Experimental: Resistant melanoma cell lines A375 and SKMel28 were a gift from Professor P. Marchetti and described in Corazao-Rozas et al. (2013). Cells were grown in RPMI 1640 or in DMEM supplemented with 10% of Foetal Calf Serum (FCS) and penicillin/streptomycin (100 U/ml/[…]) at 37° C. and 5% CO2.
# (§1) For trypan blue staining, […] of cells (melanoma and normal human cells) were aseptically transferred to a 1.5 mL clear Eppendorf tube and incubated for 3 min at room temperature with an equal volume of 0.4% trypan blue solution. Viable cells were counted and the results are expressed as the percentage of the value of control cells. All the experiments are performed 3 times in triplicate.
# A375 sensitive and resistant melanoma cells were treated with 5 μM of CRO15 for 48 hr or with 5 μM of PLX4032 for 48 hr or with DMSO (Control). At 48 hours, viable cells were counted using the trypan blue dye exclusion method. The results are normalized as percentages compare to the control and data means±SEM of three independent experiments performed in triplicate *p<0.05; **p<0.01; ***p<0.001.
# normal human cells = assay: Viability test with CRO15, normal human cells; format: cell-based; settings: 5 μM, 48 hours; FIG. 1E
# Experimental: Fresh sterile tissues were obtained from surgical waste from patients diagnosed with metastatic melanoma at the Nice CHU hospital. Epidermal cell suspensions were obtained from foreskins of Caucasian children by overnight digestion in phosphate-buffered saline containing 0.5% dispase grade II at 4° C., followed by a 20 min digestion with 0.05% trypsin-0.02% EDTA in phosphate-buffered saline (V/V) at 37° C. Human primary melanocytes were grown in MCDB153 medium supplemented with 2% FCS, 0.4 μg/ml hydrocortisone, 5 μg/ml insulin, 16 nM phorbol-12 myristate 13-acetate, 1 ng/ml basic fibroblast growth factor, 10 μg/ml bovine pituitary extract and penicillin/streptomycin (100 U/ml/50 μg/ml). […]
# as §1, with “All the experiments are performed 3 times in triplicate.” left out
# Different melanoma cell lines with various mutations, patient cells with various mutations and normal human cells, were treated with 5 μM of CRO15 for 48 hours or DMSO (Control). At the end of stimulation, viable cells were counted using the trypan blue dye exclusion method. […]
# murine melanoma BP cells = assay: Murine melanoma BP cells allografted into C57BL6 mice; format: in vivo, C57BL6/J mice; settings: BP cells allograft, immunocompetent C57BL/6, 0.7 mg/mouse/day intraperitoneal; FIG. 7A
# Experimental: In Vivo Murine Cancer Model Animal experiments were carried out in accordance with the Declaration of Helsinki and were approved by a local ethical committee CIEPAL (Comite Institutionnel d'Ethique Pour l'Animal de Laboratoire-Azur). Female C57BL6/J mice were obtained at 5 weeks of age from Envigo Laboratory (Gannat, France). Mice were inoculated subcutaneously with BP melanoma cells (1×10^6 cells/mouse). After tumor apparition (+5 days), animals received intraperitoneal injection of Labrafil (vehicle) or CRO15 (0.7 mg/mouse/day). The growth tumor curves were determined by measuring the tumor volume using the equation V=(L*W2)/2, (V=tumor volume, W=tumor width, L=tumor length). At the end of the experiment, mice were euthanized by cervical dislocation.
# [2] = system: A375 resistant melanoma cells; assay: In vivo murine cancer model, A375 resistant xenograft; parameters: species or system BALB/c nu/nu (nude) mice; settings: 0.7 mg/mouse/day intraperitoneal
# Experimental: Animal experiments were carried out in accordance with the Declaration of Helsinki and were approved by a local ethical committee CIEPAL (Comité Institutionnel d'Ethique Pour l'Animal de Laboratoire-Azur). Female immune-deficient BALB/c nu/nu (nude) mice were obtained at 5 weeks of age from Envigo Laboratory (Gannat, France). Nude mice were inoculated subcutaneously with A375 sensitive or resistant melanoma cells (1.0×10^6 cells/mouse). After tumor apparition (±5 days), animals received intraperitoneal injection of Labrafil (Control), PLX4032 (0.7 mg/mouse/day) or CRO15 (0.7 mg/mouse/day) dissolved in Labrafil. The growth tumor curves were determined by measuring the tumor volume using the equation V=(L*W2)/2 (V=tumor volume, W=tumor width, L=tumor length). At the end of the experiment, mice were euthanized by cervical dislocation and tumors were taken for western blot and immunofluorescence experiments (LC3, Cleaved Caspase 3). TUNEL assay was performed using the In Situ Cell Death Detection Kit (Roche, Meylan, France). The results are shown in FIGS. 3A and 3B (A375 sensitive melanoma cells), and 4B and 4C (A375 resistant melanoma cells).
# In Vivo Murine Cancer Model Animal experiments were carried out in accordance with the Declaration of Helsinki and were approved by a local ethical committee CIEPAL (Comite Institutionnel d'Ethique Pour l'Animal de Laboratoire-Azur). Female immune-deficient BALB/c nu/nu (nude) mice were obtained at 5 weeks of age from Envigo Laboratory (Gannat, France). Nude mice were inoculated subcutaneously with A375 resistant melanoma cells (1.0×10^6 cells/mouse). After tumor apparition (+5 days), animals received intraperitoneal injection of Labrafil (Control), PLX4032 (0.7 mg/mouse/day) or MTF319 (0.7 mg/mouse/day) dissolved in Labrafil. The growth tumor curves were determined by measuring the tumor volume using the equation V=(L*W2)/2 (V=tumor volume, W=tumor width, L=tumor length). At the end of the experiment, mice were euthanized by cervical dislocation.
structure (smiles),measurement,setting,value
"Nc1nc(Nc2ccccc2SSc2ccccc2Nc2nc(N)nc(C(Cl)(Cl)Cl)n2)nc(C(Cl)(Cl)Cl)n1 [CRO15, N2,N2′-(disulfanediylbis(2,1-phenylene))bis(6-(trichloromethyl)-1,3,5-triazine-2,4-diamine)]",decrease of the viability compared with PLX4032,"[1]; 5 μM each, A375 sensitive and resistant",more important with CRO15 than with PLX4032
same,"cell viability, A375 resistant melanoma cells",[1]; 5 μM,induces a decrease of the cell viability
same,viability of normal cells (toxicity),normal human cells,not toxic for normal cells
same,tumor growth (tumor volume),murine melanoma BP cells,no tumor growth
same,tumor volume,"[2]; FIG. 4B, 6A",reduces
same,tumor weight,"[2]; FIG. 4C, 6B",reduces
